Experimental data from US20230062119A1, “USE OF BIOMARKERS IN IDENTIFYING PATIENTS THAT WILL BE RESPONSIVE TO TREATMENT WITH A PRMT5 INHIBITOR” (Merck Sharp & Dohme LLC, priority 2019, published 2023).
pEC50: −log10 of the molar value. Where two headings read alike, the source gives them in different places.

Molecular target: T1, Full-length (FL)-PRMT5-MEP50 enzyme complex (Homo sapiens, UniProt O14744)
T1 construct: Full-length (FL)-PRMT5-MEP50 enzyme complex (recombinant proteins from baculovirus-transfected Sf21 cells: FL-PRMT5; MW=73837 kDa and FL-MEP50; MW=38614); made in house; host or cells: baculovirus-transfected Sf21 insect cells
Assay: PRMT5-MEP50 Enzyme Methylation Assay
Type: biochemical
Conditions: 1.0 nM PRMT5-MEP50, 75 nM biotinylated peptide, 15 μM SAM
Method in brief: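 Compound was pre-incubated 60 min at 37°C with 1.0 nM enzyme and 15 μM SAM (final) in 50 mM Bicine pH 8.0, then 75 nM biotinylated H4R3(Me1) peptide was added and reacted 150 min; twenty-point 1:2 titration from 100000 nM, 1% DMSO. Formic acid quench; SAMDI mass spectrometry measured Me1-to-Me2 conversion, EC50 by 4- or 7-parameter regression.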

[1] = one EC50: 4 parameters single site sigmoidal model, EC50 1: first value of 7 parameters biphasic model, read-out: Enzyme Methylation Assay (EC50 or EC50 1)
[2] = second EC50 of 7 parameters biphasic model, read-out: Enzyme Methylation Assay (EC50 2)

T1 sequence (O14744 whole entry): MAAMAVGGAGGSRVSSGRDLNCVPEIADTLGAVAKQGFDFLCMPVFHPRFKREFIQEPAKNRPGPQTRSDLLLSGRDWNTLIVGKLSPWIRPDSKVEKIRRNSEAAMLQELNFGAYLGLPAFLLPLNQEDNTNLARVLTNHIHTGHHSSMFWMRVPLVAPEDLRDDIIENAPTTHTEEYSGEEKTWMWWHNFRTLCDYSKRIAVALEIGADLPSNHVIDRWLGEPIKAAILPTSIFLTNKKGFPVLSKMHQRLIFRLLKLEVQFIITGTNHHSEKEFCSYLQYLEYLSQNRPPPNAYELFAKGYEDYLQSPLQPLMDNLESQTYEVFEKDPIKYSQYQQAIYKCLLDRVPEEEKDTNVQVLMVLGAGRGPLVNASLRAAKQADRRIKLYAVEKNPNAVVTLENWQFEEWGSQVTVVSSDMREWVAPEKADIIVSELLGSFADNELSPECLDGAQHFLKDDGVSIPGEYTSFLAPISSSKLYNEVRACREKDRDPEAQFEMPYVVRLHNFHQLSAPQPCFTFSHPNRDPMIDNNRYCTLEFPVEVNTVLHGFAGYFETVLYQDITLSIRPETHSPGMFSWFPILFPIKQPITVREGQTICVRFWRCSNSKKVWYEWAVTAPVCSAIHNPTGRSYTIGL
T1 sequence (Q9BQA1 whole entry partner): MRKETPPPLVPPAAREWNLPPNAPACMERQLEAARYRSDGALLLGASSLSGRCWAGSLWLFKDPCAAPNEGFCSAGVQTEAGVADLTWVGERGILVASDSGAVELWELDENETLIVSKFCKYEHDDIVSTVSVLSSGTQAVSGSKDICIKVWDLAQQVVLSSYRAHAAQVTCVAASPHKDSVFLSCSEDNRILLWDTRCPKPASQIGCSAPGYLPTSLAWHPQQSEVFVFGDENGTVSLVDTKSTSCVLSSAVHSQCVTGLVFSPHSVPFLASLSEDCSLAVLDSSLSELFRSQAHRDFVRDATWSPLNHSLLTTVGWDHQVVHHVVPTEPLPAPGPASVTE

pEC50 [1] | pEC50 [2] | SMILES
9.10 | – | Nc1nc2cc(C[C@@H]3CC[C@@]4(O)[C@@H]3O[C@@H](n3ccc5c(N)ncnc53)[C@@H]4O)ccc2cc1Cl [Example 67, (2R,3R,3aS,6S,6aR)-6-((2-amino-3-chloroquinolin-7-yl)methyl)-2-(4-amino-7H-pyrrolo[2,3-d]pyrimidin-7-yl)hexahydro-3aH-cyclopenta[b]furan-3,3a-diol]
9.30 | – | Nc1nc2cc(C[C@@H]3CC[C@@]4(O)[C@@H]3O[C@@H](n3cc(F)c5c(N)ncnc53)[C@@H]4O)ccc2cc1Cl [Example 68, (2R,3R,3aS,6S,6aR)-6-((2-amino-3-chloroquinolin-7-yl)methyl)-2-(4-amino-5-fluoro-7H-pyrrolo[2,3-d]pyrimidin-7-yl)hexahydro-3aH-cyclopenta[b]furan-3,3a-diol]
8.80 | – | Nc1nc2cc(O[C@H]3CC[C@@]4(O)[C@@H]3O[C@@H](n3ccc5c(N)ncnc53)[C@@H]4O)ccc2cc1F [Example 71, (2R,3R,3aS,6S,6aR)-6-((2-amino-3-fluoroquinolin-7-yl)oxy)-2-(4-amino-7H-pyrrolo[2,3-d]pyrimidin-7-yl)hexahydro-3aH-cyclopenta[b]furan-3,3a-diol]
9.05 | – | Nc1nc2cc(O[C@H]3CC[C@@]4(O)[C@@H]3O[C@@H](n3ccc5c(N)ncnc53)[C@@H]4O)ccc2cc1Cl [Example 72, (2R,3R,3aS,6S,6aR)-6-((2-amino-3-chloroquinolin-7-yl)oxy)-2-(4-amino-7H-pyrrolo[2,3-d]pyrimidin-7-yl)hexahydro-3aH-cyclopenta[b]furan-3,3a-diol]
8.92 | – | CC(C)c1ncnc2c1ccn2[C@@H]1O[C@@H]2[C@H](Cc3ccc4cc(Br)c(N)nc4c3)CC[C@]2(O)[C@H]1O [Example 83, (2R,3R,3aS,6S,6aR)-6-((2-amino-3-bromoquinolin-7-yl)methyl)-2-(4-isopropyl-7H-pyrrolo[2,3-d]pyrimidin-7-yl)hexahydro-3aH-cyclopenta[b]furan-3,3a-diol]
9.30 | – | Nc1nc2cc(C[C@@H]3CC[C@@]4(O)[C@@H]3O[C@@H](n3ccc5c(C6CC6)ncnc53)[C@@H]4O)ccc2cc1Br [Example 87, (2R,3R,3aS,6S,6aR)-6-((2-amino-3-bromoquinolin-7-yl)methyl)-2-(4-cyclopropyl-7H-pyrrolo[2,3-d]pyrimidin-7-yl)hexahydro-3aH-cyclopenta[b]furan-3,3a-diol]
9.70 | – | Cc1ncnc2c1ccn2[C@@H]1O[C@@H]2[C@H](Cc3ccc4cc(C(F)(F)F)c(N)nc4c3)CC[C@]2(O)[C@H]1O [Example 88, (2R,3R,3aS,6S,6aR)-6-((2-amino-3-(trifluoromethyl)quinolin-7-yl)methyl)-2-(4-methyl-7H-pyrrolo[2,3-d]pyrimidin-7-yl)hexahydro-3aH-cyclopenta[b]furan-3,3a-diol]
9.40 | – | Cc1nc(C)c2ccn([C@@H]3O[C@@H]4[C@H](Cc5ccc6cc(Cl)c(N)nc6c5)CC[C@]4(O)[C@H]3O)c2n1 [Example 91, (2R,3R,3aS,6S,6aR)-6-((2-amino-3-chloroquinolin-7-yl)methyl)-2-(2,4-dimethyl-7H-pyrrolo[2,3-d]pyrimidin-7-yl)hexahydro-3aH-cyclopenta[b]furan-3,3a-diol]
9.30 | – | CNc1ncnc2c1ccn2[C@@H]1O[C@@H]2[C@H](Cc3ccc4cc(Br)c(N)nc4c3)CC[C@]2(O)[C@H]1O [Example 92, (2R,3R,3aS,6S,6aR)-6-((2-amino-3-bromoquinolin-7-yl)methyl)-2-(4-(methylamino)-7H-pyrrolo[2,3-d]pyrimidin-7-yl)hexahydro-3aH-cyclopenta[b]furan-3,3a-diol]

The next lines start with the compound.

SMILES | pEC50 [1] | pEC50 [2]
Cc1cn([C@@H]2O[C@@H]3[C@H](Cc4ccc5cc(Br)c(N)nc5c4)CC[C@]3(O)[C@H]2O)c2ncnc(N)c12 [Example 70, (2R,3R,3aS,6S,6aR)-6-((2-amino-3-bromoquinolin-7-yl)methyl)-2-(4-amino-5-methyl-7H-pyrrolo[2,3-d]pyrimidin-7-yl)hexahydro-3aH-cyclopenta[b]furan-3,3a-diol 2,2,2-trifluoroacetate] | 9.40 | –
Nc1nc2cc(O[C@H]3CC[C@@]4(O)[C@@H]3O[C@@H](n3cc(F)c5c(N)ncnc53)[C@@H]4O)ccc2cc1F [Example 73, (2R,3R,3aS,6S,6aR)-6-((2-amino-3-fluoroquinolin-7-yl)oxy)-2-(4-amino-5-fluoro-7H-pyrrolo[2,3-d]pyrimidin-7-yl)hexahydro-3aH-cyclopenta[b]furan-3,3a-diol] | 9.40 | –
Nc1nc2cc(O[C@H]3CC[C@@]4(O)[C@@H]3O[C@@H](n3cc(F)c5c(N)ncnc53)[C@@H]4O)ccc2cc1Cl [Example 74, (2R,3R,3aS,6S,6aR)-6-((2-amino-3-chloroquinolin-7-yl)oxy)-2-(4-amino-5-fluoro-7H-pyrrolo[2,3-d]pyrimidin-7-yl)hexahydro-3aH-cyclopenta[b]furan-3,3a-diol] | 9.52 | –
Nc1ncnc2c1ccn2[C@@H]1O[C@@H]2[C@@H](Oc3ccc4cc5c(nc4c3)NCC5)CC[C@]2(O)[C@H]1O [Example 75, (2R,3R,3aS,6S,6aR)-2-(4-amino-7H-pyrrolo[2,3-d]pyrimidin-7-yl)-6-((2,3-dihydro-1H-pyrrolo[2,3-b]quinolin-7-yl)oxy)hexahydro-3aH-cyclopenta[b]furan-3,3a-diol] | 9.15 | –
Nc1nc2cc(O[C@H]3CC[C@@]4(O)[C@@H]3O[C@@H](n3ccc5c(CO)ncnc53)[C@@H]4O)ccc2cc1Br [Example 77, (2R,3R,3aS,6S,6aR)-6-[(2-amino-3-bromoquinolin-7-yl)oxy]-2-[4-(hydroxymethyl)-7H-pyrrolo[2,3-d]pyrimidin-7-yl]hexahydro-3aH-cyclopenta[b]furan-3,3a-diol] | 8.70 | 6.61
CC(C)(O)c1ncnc2c1ccn2[C@@H]1O[C@@H]2[C@@H](Oc3ccc4cc(Br)c(N)nc4c3)CC[C@]2(O)[C@H]1O [Example 78, (2R,3R,3aS,6S,6aR)-6-[(2-amino-3-bromoquinolin-7-yl)oxy]-2-[4-(2-hydroxypropan-2-yl)-7H-pyrrolo[2,3-d]pyrimidin-7-yl]hexahydro-3aH-cyclopenta[b]furan-3,3a-diol] | 7.88 | –
Cc1nc(C)c2ccn([C@@H]3O[C@@H]4[C@@H](Oc5ccc6cc(Br)c(N)nc6c5)CC[C@]4(O)[C@H]3O)c2n1 [Example 80, (2R,3R,3aS,6S,6aR)-6-((2-amino-3-bromoquinolin-7-yl)oxy)-2-(2,4-dimethyl-7H-pyrrolo[2,3-d]pyrimidin-7-yl)hexahydro-3aH-cyclopenta[b]furan-3,3a-diol 2,2,2-trifluoroacetate] | 8.54 | –
Cc1nc(C)c2ccn([C@@H]3O[C@@H]4[C@H](Cc5ccc6cc(Br)c(N)nc6c5)CC[C@]4(O)[C@H]3O)c2n1 [Example 81, (2R,3R,3aS,6S,6aR)-6-((2-amino-3-bromoquinolin-7-yl)methyl)-2-(2,4-dimethyl-7H-pyrrolo[2,3-d]pyrimidin-7-yl)hexahydro-3aH-cyclopenta[b]furan-3,3a-diol] | 9.15 | –
Cc1ncnc2c1c(F)cn2[C@@H]1O[C@@H]2[C@H](Cc3ccc4cc(Br)c(N)nc4c3)CC[C@]2(O)[C@H]1O [Example 84, (2R,3R,3aS,6S,6aR)-6-((2-amino-3-bromoquinolin-7-yl)methyl)-2-(5-fluoro-4-methyl-7H-pyrrolo[2,3-d]pyrimidin-7-yl)hexahydro-3aH-cyclopenta[b]furan-3,3a-diol] | 9.22 | –
Nc1nc2cc(O[C@H]3CC[C@@]4(O)[C@@H]3O[C@@H](n3ccc5cncnc53)[C@@H]4O)ccc2cc1Br [Example 85, (2R,3R,3aS,6S,6aR)-6-((2-amino-3-bromoquinolin-7-yl)oxy)-2-(7H-pyrrolo[2,3-d]pyrimidin-7-yl)hexahydro-3aH-cyclopenta[b]furan-3,3a-diol] | 8.92 | 6.61
Cc1ncnc2c1ccn2[C@@H]1O[C@@H]2[C@@H](Oc3ccc4cc(F)c(N)nc4c3)CC[C@]2(O)[C@H]1O [Example 86, (2R,3R,3aS,6S,6aR)-6-((2-amino-3-fluoroquinolin-7-yl)oxy)-2-(4-methyl-7H-pyrrolo[2,3-d]pyrimidin-7-yl)hexahydro-3aH-cyclopenta[b]furan-3,3a-diol] | 9.30 | 7.20
Cc1ncnc2c1ccn2[C@@H]1O[C@@H]2[C@@H](Oc3ccc4cc5c(nc4c3)NCC5)CC[C@]2(O)[C@H]1O [Example 89, (2R,3R,3aS,6S,6aR)-6-((2,3-dihydro-1H-pyrrolo[2,3-b]quinolin-7-yl)oxy)-2-(4-methyl-7H-pyrrolo[2,3-d]pyrimidin-7-yl)hexahydro-3aH-cyclopenta[b]furan-3,3a-diol] | 8.89 | –
Cc1nc(C)c2ccn([C@@H]3O[C@@H]4[C@H](Cc5ccc6cc(F)c(N)nc6c5)CC[C@]4(O)[C@H]3O)c2n1 [Example 90, (2R,3R,3aS,6S,6aR)-6-((2-amino-3-fluoroquinolin-7-yl)methyl)-2-(2,4-dimethyl-7H-pyrrolo[2,3-d]pyrimidin-7-yl)hexahydro-3aH-cyclopenta[b]furan-3,3a-diol] | 9.05 | –
CNc1ncnc2c1ccn2[C@@H]1C[C@H](COc2ccc3cc(Br)c(N)nc3c2)[C@@](C)(O)[C@H]1O [Example 93, (1R,2S,3R,5R)-5-(((2-amino-3-bromoquinolin-7-yl)oxy)methyl)-1-methyl-3-(4-(methylamino)-7H-pyrrolo[2,3-d]pyrimidin-7-yl)cyclopentane-1,2-diol] | 9.30 | 6.96
